Among the test systems are UACC-62 melanoma; MDA-MB-231 breast; SK-MEL-2 melanoma; HCT-15 colon; SF-268 CNS; SK-OV-3 ovarian; A498 renal; MCF7 breast; M19-MEL melanoma; HOP-18 NSCLC.
Holding throughout (assay): NCI anticancer screen, dose series, 48 h

The record followed here is PubChem BioAssay (NCI).

Several values for one entry are separate records, joined by “and”; a condition that tells them apart may be missing. Equal values may be shown once.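 Method: 48-hour compound exposure of cells in 96-well plates, five concentrations, linear interpolation of endpoints. GI50: concentration for 50% inhibition of growth. Definition used: TGI = concentration required for complete inhibition of growth.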

As to `CCOC1OCCCC1Br` (stereo not drawn), the TGI in the assay with UACC-62 melanoma, with MDA-MB-231 breast, in the assay with SK-MEL-2 melanoma, in the assay with HCT-15 colon, with SF-268 CNS and in the assay with SK-OV-3 ovarian was over 100 µM throughout. For the same compound, the TGI in the assay on A498 renal and in the assay on MCF7 breast was over 100 µM each time.

Regarding `CC(CN=C(CC(=O)c1ccc(Br)cc1)c1ccccc1)N=C(CC(=O)c1ccc(Br)cc1)c1ccccc1` (stereo not drawn), the GI50 in the assay on UACC-62 melanoma was 32 µM; in the assay with MDA-MB-231 breast, over 100 µM; with SK-MEL-2 melanoma, 3.48 µM; with HCT-15 colon, 43.6 µM; with SF-268 CNS, 29.9 µM; in the assay on SK-OV-3 ovarian, 9.05 µM. The GI50 in the assay with A498 renal is 38.8 µM; with MCF7 breast it was 2.91 µM. For the same compound, the TGI with UACC-62 melanoma, in the assay on MDA-MB-231 breast, with SK-MEL-2 melanoma, with HCT-15 colon, with SF-268 CNS and in the assay on SK-OV-3 ovarian was over 100 µM throughout. The TGI with A498 renal and with MCF7 breast was over 100 µM in each case.

Turning to `COc1ccc(-c2ccc(/C=C/C(=O)NO)cc2)cc1`, the GI50 in the assay on UACC-62 melanoma is 1.15 µM; with MDA-MB-231 breast, 1.17 µM; in the assay on SK-MEL-2 melanoma, 5.11 µM; in the assay on HCT-15 colon, 0.468 µM; with SF-268 CNS, 0.982 µM; with SK-OV-3 ovarian, 1.18 µM. For the same compound, the GI50 in the assay with A498 renal was 1.4 µM; in the assay with MCF7 breast, 0.639 µM. Moreover, the TGI in the assay on UACC-62 melanoma worked out at 3.43 µM; in the assay with MDA-MB-231 breast it was 13.4 µM; in the assay on SK-MEL-2 melanoma it was 37.6 µM; in the assay with HCT-15 colon it was 58.7 µM; in the assay with SF-268 CNS it was 5.58 µM; with SK-OV-3 ovarian, 3.21 µM. For the same compound, the TGI is 3.76 µM in the assay with A498 renal and 19.2 µM in the assay on MCF7 breast.

As for `O=C(N/N=C(/c1nc2ccc(Cl)cc2[nH]c1=O)C(O)c1ccc(Cl)cc1Cl)c1ccncc1` (stereo not drawn), the TGI in the assay with UACC-62 melanoma, with SK-MEL-2 melanoma, with HCT-15 colon, in the assay on SF-268 CNS, in the assay with SK-OV-3 ovarian and with A498 renal was over 100 µM in each case. This compound also gave a TGI in the assay with M19-MEL melanoma of over 100 µM.

For `O=C1c2ccccc2C(=O)c2c1ccc(C(Br)Br)c2[N+](=O)[O-]`, the GI50 is 1.31 µM in the assay with UACC-62 melanoma; 1.55 µM with MDA-MB-231 breast; 1.91 µM in the assay on SK-MEL-2 melanoma; 1.52 µM with HCT-15 colon; 1.57 µM in the assay on SF-268 CNS; 14.1 µM with SK-OV-3 ovarian. In addition, the GI50 with A498 renal is 1.67 µM; in the assay on MCF7 breast, 0.598 µM. Besides, the TGI was 3.1 µM with UACC-62 melanoma; 3.13 µM in the assay on MDA-MB-231 breast; 4.09 µM with SK-MEL-2 melanoma; 2.93 µM in the assay on HCT-15 colon; 3.17 µM in the assay on SF-268 CNS; 27.1 µM with SK-OV-3 ovarian. Also, the TGI with A498 renal amounted to 7.73 µM; in the assay on MCF7 breast, 2.54 µM.

For `COC(=O)/C=C/C(=O)C1C(C(=O)OC)C2(C(=O)OC)CCC1(C(=O)OC)N2` (stereo not drawn), the TGI in the assay with UACC-62 melanoma, with SK-MEL-2 melanoma, in the assay with HCT-15 colon, with SF-268 CNS, in the assay on SK-OV-3 ovarian and in the assay with M19-MEL melanoma was over 100 µM each time. Also, the TGI in the assay with HOP-18 NSCLC was over 100 µM.

Consider `CCC1C(C)c2c([nH]c3ccccc23)C2C(=O)N(c3ccccc3)C(=O)C21` (stereo not drawn), for which the TGI in the assay with UACC-62 melanoma was 21.9 µM; in the assay on HCT-15 colon it was 31.2 µM; in the assay on SF-268 CNS, 62.5 µM; in the assay on SK-OV-3 ovarian, 44.1 µM; with M19-MEL melanoma, 29.6 µM.

Regarding `Cl.[Pt].[c-]1ccccc1-c1ccccn1.c1ccc(P(c2ccccc2)C([PH+](c2ccccc2)c2ccccc2)[PH+](c2ccccc2)c2ccccc2)cc1`, the GI50 with UACC-62 melanoma was 1.7 µM; in the assay with MDA-MB-231 breast, 1.93 µM; in the assay on SK-MEL-2 melanoma it was 2.09 µM; in the assay with HCT-15 colon it was 2.81 µM; in the assay with SF-268 CNS, 2.59 µM; in the assay with SK-OV-3 ovarian, 3.57 µM. The GI50 with A498 renal was 1.85 µM; with MCF7 breast, 1.52 µM. The TGI in the assay with UACC-62 melanoma was 4.75 µM; with MDA-MB-231 breast it was 5.24 µM; with SK-MEL-2 melanoma it was 5.92 µM; in the assay on HCT-15 colon, over 100 µM; in the assay with SF-268 CNS, 20.9 µM; in the assay with SK-OV-3 ovarian it was over 100 µM. Also, the TGI came out at 5.89 µM with A498 renal and 47 µM in the assay with MCF7 breast.

In the case of `CCOC(=O)C1N(S(=O)(=O)c2ccc(C)cc2)CCC12c1ccccc1N(C(C)=O)C2C(/C=C/C(=O)OC)=C/C(=O)OC` (stereo not drawn), the TGI with UACC-62 melanoma, in the assay with SF-268 CNS, in the assay with SK-OV-3 ovarian, with A498 renal and in the assay with M19-MEL melanoma was over 100 µM each time.

As for `CCCS(=O)(=O)Nc1ccc(F)c(C(=O)c2c[nH]c3ncc(-c4ccc(Cl)cc4)cc23)c1F`, the GI50 was 0.0241 µM and 0.034 µM with UACC-62 melanoma; 3.98 µM and 5.16 µM with MDA-MB-231 breast; 4.11 µM and 3.65 µM in the assay with SK-MEL-2 melanoma; 4.45 µM and 4.1 µM in the assay on HCT-15 colon; 6.09 µM and 6.67 µM in the assay on SF-268 CNS; 4.19 µM and 3.38 µM in the assay with SK-OV-3 ovarian. For the same compound, the GI50 in the assay on A498 renal was 1.72 µM and 2.59 µM; with MCF7 breast, 5.24 µM and 8.84 µM. In addition, the TGI in the assay with UACC-62 melanoma was 0.496 µM and 0.485 µM; in the assay with MDA-MB-231 breast, 18.9 µM and > 10 µM; in the assay with SK-MEL-2 melanoma, 14.7 µM and > 10 µM; in the assay on HCT-15 colon, 17.7 µM and > 10 µM; with SF-268 CNS, 23.6 µM and > 10 µM; with SK-OV-3 ovarian it was 19 µM and > 10 µM. The TGI was 12.3 µM and > 8.97 µM in the assay with A498 renal; 20.9 µM and > 10 µM with MCF7 breast.

Regarding `Nc1ncnc2c1c(C(F)(F)F)cn2[C@@H]1O[C@H](CO)[C@@H](O)[C@H]1O`, the GI50 in the assay on UACC-62 melanoma was 0.0601 µM; in the assay with MDA-MB-231 breast, 0.652 µM; with SK-MEL-2 melanoma, 0.953 µM; with HCT-15 colon it was 0.197 µM; in the assay on SF-268 CNS, 1.19 µM; in the assay with SK-OV-3 ovarian, 2.49 µM. Moreover, the GI50 in the assay with A498 renal is 0.0936 µM; in the assay with MCF7 breast, 0.0405 µM. In addition, the TGI with UACC-62 melanoma was 1.78 µM; with MDA-MB-231 breast it was over 100 µM; with SK-MEL-2 melanoma it was 2.79 µM; with HCT-15 colon it was over 100 µM; in the assay with SF-268 CNS, over 26.3 µM; in the assay on SK-OV-3 ovarian, over 100 µM. Moreover, the figures for the TGI with A498 renal and in the assay on MCF7 breast were 1.95 µM and over 86.3 µM, respectively.
